From the kinase profiling compilation of Christmann-Franck et al. (2016)

Key:
Assay in all cases: radiometric filter-binding kinase assay, Kinase HotSpot
Conditions in all cases: compound 0.5 µM; ATP 10 µM
MAP3K3 (human) = MAP3K3 (human) (UniProt Q99759)
CDK3 CCNE1 (human) = CDK3 CCNE1 (human) (UniProt Q00526+P24864)
CAMK2G (human) = CAMK2G (human) (UniProt Q13555)
MAPK12 (human) = MAPK12 (human) (UniProt P53778)
TNK2 (human) = TNK2 (human) (UniProt Q07912)
GSK3A (human) = GSK3A (human) (UniProt P49840)
GSK3A (human), sequence (P49840 whole entry, looked up): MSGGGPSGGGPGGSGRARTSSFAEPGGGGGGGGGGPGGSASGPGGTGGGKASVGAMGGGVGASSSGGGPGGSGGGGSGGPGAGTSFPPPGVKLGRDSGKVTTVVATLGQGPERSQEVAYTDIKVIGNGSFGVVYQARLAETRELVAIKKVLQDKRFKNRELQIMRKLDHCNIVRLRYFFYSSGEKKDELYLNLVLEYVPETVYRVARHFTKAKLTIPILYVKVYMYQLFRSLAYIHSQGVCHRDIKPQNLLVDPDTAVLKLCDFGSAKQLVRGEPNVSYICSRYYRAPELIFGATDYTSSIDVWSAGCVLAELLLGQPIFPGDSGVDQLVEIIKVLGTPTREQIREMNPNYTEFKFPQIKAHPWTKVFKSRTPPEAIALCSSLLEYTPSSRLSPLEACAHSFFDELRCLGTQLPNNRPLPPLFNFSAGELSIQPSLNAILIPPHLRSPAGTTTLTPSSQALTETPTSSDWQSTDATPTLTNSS

INSRR (human) = INSRR (human) (UniProt P14616)
INSRR (human), sequence (P14616 whole entry, looked up): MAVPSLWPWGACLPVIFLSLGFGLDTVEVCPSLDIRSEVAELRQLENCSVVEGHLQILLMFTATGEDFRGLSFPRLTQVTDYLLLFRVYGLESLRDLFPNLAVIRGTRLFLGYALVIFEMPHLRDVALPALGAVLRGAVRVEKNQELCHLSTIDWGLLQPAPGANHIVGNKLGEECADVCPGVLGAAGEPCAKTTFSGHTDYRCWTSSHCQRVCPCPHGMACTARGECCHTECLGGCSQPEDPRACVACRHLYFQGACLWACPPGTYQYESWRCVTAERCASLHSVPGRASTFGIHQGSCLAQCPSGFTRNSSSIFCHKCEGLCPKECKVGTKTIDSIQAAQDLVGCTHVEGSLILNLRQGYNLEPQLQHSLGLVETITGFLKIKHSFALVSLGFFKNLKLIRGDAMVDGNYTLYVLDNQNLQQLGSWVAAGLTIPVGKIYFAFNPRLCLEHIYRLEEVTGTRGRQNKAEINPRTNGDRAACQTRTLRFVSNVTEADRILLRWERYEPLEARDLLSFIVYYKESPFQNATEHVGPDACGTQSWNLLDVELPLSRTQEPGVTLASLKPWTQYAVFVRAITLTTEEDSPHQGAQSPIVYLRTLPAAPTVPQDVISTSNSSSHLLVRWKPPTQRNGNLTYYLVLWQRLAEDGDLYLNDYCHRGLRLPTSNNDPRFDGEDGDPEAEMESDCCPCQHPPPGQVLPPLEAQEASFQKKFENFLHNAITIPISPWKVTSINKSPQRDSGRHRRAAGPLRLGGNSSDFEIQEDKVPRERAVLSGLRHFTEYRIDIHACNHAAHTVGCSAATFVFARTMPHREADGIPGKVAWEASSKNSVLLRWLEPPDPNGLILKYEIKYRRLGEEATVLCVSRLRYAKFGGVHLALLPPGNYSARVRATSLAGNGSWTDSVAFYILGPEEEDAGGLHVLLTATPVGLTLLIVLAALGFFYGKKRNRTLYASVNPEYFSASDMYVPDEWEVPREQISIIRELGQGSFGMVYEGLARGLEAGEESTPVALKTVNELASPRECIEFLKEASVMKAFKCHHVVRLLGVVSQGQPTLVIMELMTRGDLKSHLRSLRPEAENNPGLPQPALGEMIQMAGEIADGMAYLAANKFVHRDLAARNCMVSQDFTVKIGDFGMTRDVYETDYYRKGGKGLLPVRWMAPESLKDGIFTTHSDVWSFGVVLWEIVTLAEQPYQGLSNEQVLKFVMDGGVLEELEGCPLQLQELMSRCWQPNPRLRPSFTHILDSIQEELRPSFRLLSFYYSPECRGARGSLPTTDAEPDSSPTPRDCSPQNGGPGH

CSK (human) = CSK (human) (UniProt P41240)
TEK (human) = TEK (human) (UniProt Q02763)
TEK (human), sequence (Q02763 whole entry, looked up): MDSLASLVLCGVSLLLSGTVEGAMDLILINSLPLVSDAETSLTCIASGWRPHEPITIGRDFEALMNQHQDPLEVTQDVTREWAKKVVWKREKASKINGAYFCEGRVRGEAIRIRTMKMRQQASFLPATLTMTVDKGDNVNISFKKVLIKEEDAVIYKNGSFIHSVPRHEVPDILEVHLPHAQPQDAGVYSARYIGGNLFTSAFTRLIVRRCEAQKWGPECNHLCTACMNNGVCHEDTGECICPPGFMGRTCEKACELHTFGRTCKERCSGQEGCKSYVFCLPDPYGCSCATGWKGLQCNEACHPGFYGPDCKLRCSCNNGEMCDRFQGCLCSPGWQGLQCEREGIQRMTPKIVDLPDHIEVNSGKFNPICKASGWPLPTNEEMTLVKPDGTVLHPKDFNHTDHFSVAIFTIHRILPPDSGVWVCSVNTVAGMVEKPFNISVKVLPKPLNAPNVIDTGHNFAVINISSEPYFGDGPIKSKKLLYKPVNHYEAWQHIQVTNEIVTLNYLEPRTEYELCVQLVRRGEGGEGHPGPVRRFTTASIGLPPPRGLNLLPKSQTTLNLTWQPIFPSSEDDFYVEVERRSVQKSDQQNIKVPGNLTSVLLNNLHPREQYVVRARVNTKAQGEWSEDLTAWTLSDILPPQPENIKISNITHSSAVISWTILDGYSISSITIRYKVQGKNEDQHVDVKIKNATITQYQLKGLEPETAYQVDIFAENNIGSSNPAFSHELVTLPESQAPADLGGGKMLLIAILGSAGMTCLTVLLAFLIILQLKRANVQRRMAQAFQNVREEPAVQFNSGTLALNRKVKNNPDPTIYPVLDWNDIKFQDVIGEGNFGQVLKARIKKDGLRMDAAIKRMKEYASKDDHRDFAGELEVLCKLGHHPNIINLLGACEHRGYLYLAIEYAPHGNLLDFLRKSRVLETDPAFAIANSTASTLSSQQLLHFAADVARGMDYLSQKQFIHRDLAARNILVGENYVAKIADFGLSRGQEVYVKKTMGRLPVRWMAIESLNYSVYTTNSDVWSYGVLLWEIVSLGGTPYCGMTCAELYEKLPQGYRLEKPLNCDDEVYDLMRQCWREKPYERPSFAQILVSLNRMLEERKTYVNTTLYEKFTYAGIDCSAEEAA

CDK1 CCNA2 (human) = CDK1 CCNA2 (human) (UniProt P06493+P20248)
CDK4 CCND3 (human) = CDK4 CCND3 (human) (UniProt P30281+P11802)
IRAK4 (human) = IRAK4 (human) (UniProt Q9NWZ3)
ADRBK1 (human) = ADRBK1 (human) (UniProt P25098)
FRK (human) = FRK (human) (UniProt P42685)
FRK (human), sequence (P42685 whole entry, looked up): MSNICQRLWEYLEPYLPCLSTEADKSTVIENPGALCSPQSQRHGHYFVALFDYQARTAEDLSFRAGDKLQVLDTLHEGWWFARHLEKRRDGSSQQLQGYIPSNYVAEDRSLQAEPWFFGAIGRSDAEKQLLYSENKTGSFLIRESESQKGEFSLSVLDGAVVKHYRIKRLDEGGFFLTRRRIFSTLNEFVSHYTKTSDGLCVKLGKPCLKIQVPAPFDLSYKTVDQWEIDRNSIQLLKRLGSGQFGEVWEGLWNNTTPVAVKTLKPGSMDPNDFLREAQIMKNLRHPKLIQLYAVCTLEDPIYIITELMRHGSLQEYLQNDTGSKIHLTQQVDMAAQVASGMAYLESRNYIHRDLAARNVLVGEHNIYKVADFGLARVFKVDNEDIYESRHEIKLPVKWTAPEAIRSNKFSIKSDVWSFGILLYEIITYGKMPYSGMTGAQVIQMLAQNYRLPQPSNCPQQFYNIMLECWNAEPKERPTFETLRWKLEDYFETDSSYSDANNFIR

MAP2K2 (human) = MAP2K2 (human) (UniProt P36507)
AURKC (human) = AURKC (human) (UniProt Q9UQB9)
SRC (human) = SRC (human) (UniProt P12931)
SRC (human), sequence (P12931 whole entry, looked up): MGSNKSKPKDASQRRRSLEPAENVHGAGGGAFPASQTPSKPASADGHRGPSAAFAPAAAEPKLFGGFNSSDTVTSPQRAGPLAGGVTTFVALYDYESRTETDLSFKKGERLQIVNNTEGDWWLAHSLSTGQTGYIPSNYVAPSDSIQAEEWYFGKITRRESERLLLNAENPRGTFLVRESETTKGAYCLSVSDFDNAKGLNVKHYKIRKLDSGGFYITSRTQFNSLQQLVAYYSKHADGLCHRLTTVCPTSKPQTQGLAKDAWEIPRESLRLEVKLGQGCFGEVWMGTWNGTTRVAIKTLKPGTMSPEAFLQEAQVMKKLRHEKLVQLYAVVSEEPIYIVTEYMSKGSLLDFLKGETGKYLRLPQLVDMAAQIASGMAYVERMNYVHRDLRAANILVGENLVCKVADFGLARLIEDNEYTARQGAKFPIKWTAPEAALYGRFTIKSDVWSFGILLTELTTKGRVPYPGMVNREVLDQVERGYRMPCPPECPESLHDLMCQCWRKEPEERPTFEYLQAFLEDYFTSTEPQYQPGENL

STK24 (human) = STK24 (human) (UniProt Q9Y6E0)
SLK (human) = SLK (human) (UniProt Q9H2G2)
NEK9 (human) = NEK9 (human) (UniProt Q8TD19)
STK33 (human) = STK33 (human) (UniProt Q9BYT3)
MAP3K9 (human) = MAP3K9 (human) (UniProt P80192)
HIPK3 (human) = HIPK3 (human) (UniProt Q9H422)
MAP3K11 (human) = MAP3K11 (human) (UniProt Q16584)
PDGFRA (human) = PDGFRA (human) (UniProt P16234)
PAK7 (human) = PAK7 (human) (UniProt Q9P286)
PRKX (human) = PRKX (human) (UniProt P51817)
CAMK4 (human) = CAMK4 (human) (UniProt Q16566)
HCK (human) = HCK (human) (UniProt P08631)
PIM3 (human) = PIM3 (human) (UniProt Q86V86)
PIM2 (human) = PIM2 (human) (UniProt Q9P1W9)
PIM2 (human), sequence (Q9P1W9 whole entry, looked up): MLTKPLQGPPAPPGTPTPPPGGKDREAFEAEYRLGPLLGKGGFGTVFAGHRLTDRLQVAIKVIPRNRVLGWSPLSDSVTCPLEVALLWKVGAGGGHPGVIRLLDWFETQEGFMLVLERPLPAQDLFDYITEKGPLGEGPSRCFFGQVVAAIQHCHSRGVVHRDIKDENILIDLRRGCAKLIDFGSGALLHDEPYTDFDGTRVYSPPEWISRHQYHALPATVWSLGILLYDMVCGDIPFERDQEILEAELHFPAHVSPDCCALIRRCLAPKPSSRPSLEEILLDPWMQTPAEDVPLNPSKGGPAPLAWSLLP

NEK1 (human) = NEK1 (human) (UniProt Q96PY6)
[1] = target: JAK1 JH1 catalytic (human) (UniProt P23458)
FGR (human) = FGR (human) (UniProt P09769)
FGR (human), sequence (P09769 whole entry, looked up): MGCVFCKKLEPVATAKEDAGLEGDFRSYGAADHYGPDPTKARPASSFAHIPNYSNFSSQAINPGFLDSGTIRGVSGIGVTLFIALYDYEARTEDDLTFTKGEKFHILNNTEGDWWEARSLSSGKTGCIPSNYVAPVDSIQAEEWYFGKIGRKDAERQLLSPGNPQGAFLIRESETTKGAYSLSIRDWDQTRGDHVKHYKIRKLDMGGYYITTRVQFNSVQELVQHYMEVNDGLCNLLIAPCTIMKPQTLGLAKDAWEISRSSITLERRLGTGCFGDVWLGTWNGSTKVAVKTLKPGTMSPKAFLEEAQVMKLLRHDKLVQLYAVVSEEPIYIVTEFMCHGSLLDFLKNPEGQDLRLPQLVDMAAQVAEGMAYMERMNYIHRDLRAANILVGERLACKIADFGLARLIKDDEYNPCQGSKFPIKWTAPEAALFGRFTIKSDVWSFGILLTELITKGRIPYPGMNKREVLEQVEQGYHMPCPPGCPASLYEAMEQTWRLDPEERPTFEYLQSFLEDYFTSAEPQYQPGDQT

WNK2 (human) = WNK2 (human) (UniProt Q9Y3S1)
NTRK3 (human) = NTRK3 (human) (UniProt Q16288)
CDK1 CCNB1 (human) = CDK1 CCNB1 (human) (UniProt P06493+P14635)
TGFBR1 (human) = TGFBR1 (human) (UniProt P36897)
MAP4K2 (human) = MAP4K2 (human) (UniProt Q12851)
AKT2 (human) = AKT2 (human) (UniProt P31751)
CHEK1 (human) = CHEK1 (human) (UniProt O14757)
MAP3K2 (human) = MAP3K2 (human) (UniProt Q9Y2U5)

SMILES: Cc1ccc(S(=O)(=O)/C=C/C#N)cc1
- residual activity (MAP3K3 (human)): 98.1%
- residual activity (CDK3 CCNE1 (human)): 99.7%
- residual activity (CAMK2G (human)): 103%
- residual activity (MAPK12 (human)): 90.5%
- residual activity (TNK2 (human)): 94.9%
- residual activity (GSK3A (human)): 106%
- residual activity (INSRR (human)): 98%
- residual activity (CSK (human)): 97.2%
- residual activity (TEK (human)): 101%
- residual activity (CDK1 CCNA2 (human)): 96.7%
- residual activity (CDK4 CCND3 (human)): 100%
- residual activity (IRAK4 (human)): 161%
- residual activity (ADRBK1 (human)): 102%
- residual activity (FRK (human)): 91.6%
- residual activity (MAP2K2 (human)): 91%
- residual activity (AURKC (human)): 97.1%
- residual activity (SRC (human)): 102%
- residual activity (STK24 (human)): 89.3%
- residual activity (SLK (human)): 101%
- residual activity (NEK9 (human)): 95.6%
- residual activity (STK33 (human)): 87.1%
- residual activity (MAP3K9 (human)): 96.9%
- residual activity (HIPK3 (human)): 100%
- residual activity (MAP3K11 (human)): 98.2%
- residual activity (PDGFRA (human)): 94.2%
- residual activity (PAK7 (human)): 100%
- residual activity (PRKX (human)): 102%
- residual activity (CAMK4 (human)): 96.4%
- residual activity (HCK (human)): 100%
- residual activity (PIM3 (human)): 93.6%
- residual activity (PIM2 (human)): 103%
- residual activity (NEK1 (human)): 92.3%
- residual activity [1]: 98.2%
- residual activity (FGR (human)): 100%
- residual activity (WNK2 (human)): 124%
- residual activity (NTRK3 (human)): 95.5%
- residual activity (CDK1 CCNB1 (human)): 92.3%
- residual activity (TGFBR1 (human)): 103%
- residual activity (MAP4K2 (human)): 130%
- residual activity (AKT2 (human)): 94.9%
- residual activity (CHEK1 (human)): 97.5%
- residual activity (MAP3K2 (human)): 91.8%

SMILES: CO[C@H]1CC2CC[C@@H](C)[C@@](O)(O2)C(=O)C(=O)N2CCCC[C@H]2C(=O)OC([C@H](C)C[C@@H]2CC[C@@H](O)[C@H](OC)C2)CC(=O)[C@H](C)/C=C(\C)[C@@H](O)[C@@H](OC)C(=O)[C@H](C)C[C@H](C)/C=C/C=C/C=C/1C (some centres undefined)
- residual activity (MAP3K3 (human)): 101%
- residual activity (CDK3 CCNE1 (human)): 102%
- residual activity (CAMK2G (human)): 101%
- residual activity (MAPK12 (human)): 107%
- residual activity (TNK2 (human)): 98.5%
- residual activity (GSK3A (human)): 106%
- residual activity (INSRR (human)): 102%
- residual activity (CSK (human)): 101%
- residual activity (TEK (human)): 97.6%
- residual activity (CDK1 CCNA2 (human)): 91.9%
- residual activity (CDK4 CCND3 (human)): 104%
- residual activity (IRAK4 (human)): 123%
- residual activity (ADRBK1 (human)): 102%
- residual activity (FRK (human)): 106%
- residual activity (MAP2K2 (human)): 103%
- residual activity (AURKC (human)): 95.6%
- residual activity (SRC (human)): 96%
- residual activity (STK24 (human)): 93.5%
- residual activity (SLK (human)): 98.7%
- residual activity (NEK9 (human)): 98.2%
- residual activity (STK33 (human)): 105%
- residual activity (MAP3K9 (human)): 87.3%
- residual activity (HIPK3 (human)): 107%
- residual activity (MAP3K11 (human)): 98.5%
- residual activity (PDGFRA (human)): 95.1%
- residual activity (PAK7 (human)): 106%
- residual activity (PRKX (human)): 95.6%
- residual activity (CAMK4 (human)): 99.1%
- residual activity (HCK (human)): 102%
- residual activity (PIM3 (human)): 106%
- residual activity (PIM2 (human)): 102%
- residual activity (NEK1 (human)): 104%
- residual activity [1]: 103%
- residual activity (FGR (human)): 94.5%
- residual activity (WNK2 (human)): 103%
- residual activity (NTRK3 (human)): 103%
- residual activity (CDK1 CCNB1 (human)): 103%
- residual activity (TGFBR1 (human)): 99.5%
- residual activity (MAP4K2 (human)): 111%
- residual activity (AKT2 (human)): 96.1%
- residual activity (CHEK1 (human)): 107%
- residual activity (MAP3K2 (human)): 94.8%
